Reference: patent US9394327B1, “Nucleoside crystals, crystal nucleation and growth control with antifreeze proteins” (The Trustees of California State University, priority 2013, dated 2016)

Columns and labels:
[1] = Stability of m^5U crystal forms left in air at room temperature; format: physicochemical
Description: The only previously known crystalline form of m^5U is its hemihydrate crystal, designated form I, which was crystallized exclusively by evaporation from the supersaturated aqueous solutions. By using DAFP-1 as an additive, remarkably, we were able to control the crystallization of m^5U and discover a new, less thermodynamically and kinetically preferred form, m^5U dihydrate crystal, designated form II. Forms I and II crystals are readily distinguished from each other by their morphology and stability. Form I crystals are needle-like in appearance (FIG. 16(a)) and there was no change (in the appearance, single crystal X-ray diffraction pattern, or DSC profile) of the crystals after being left in air at room temperature for more than 24 months. Form II crystals are block-shaped (FIG. 16(b)) and became white opaque powders/blocks in 2 months. The resulting solids were not suitable for single-crystal X-ray diffraction.

[2] = Crystallization and crystallization kinetics of m^5U form I and form II from supersaturated solution; format: physicochemical; conditions: for Day the crystallization completes / Day the crystallization starts: 595 mM m^5U, form I in absence of DAFP-1, form II in presence of DAFP-1 (additive/m^5U 5×10^−6); for Average crystal growth rate: estimated from mass increase of crystals, form I without, form II with DAFP-1; for Crystal morphology of the form: optical micrographs
Procedure: Supersaturated m^5U aqueous solutions (0.6 M) were made at 30° C. and filtered as soon as possible. Crystals were not grown after the temperature dropped to room temperature for a few days. On day 1, to each sample vial was added 600 μL of 0.6 M m^5U solution, and then 5 μL of water or DAFP solution were added into the vial. The vials were gently swirled after the additions. The resulting m^5U concentration was 595 mM in each vial and additive/m^5U molar ratios (×10^−6) were either 0 or 5. The sample vials were left open in the air at room temperature and three observations at least were recorded per day (every 8 hours) until the solutions in all the vials were dry. The above experiments were repeated five times. Optical micrographs were taken under Nikon SMZ800 microscope with a Nikon Coolpix 5400 when the crystallization completed. Under the above conditions, only form I crystalline m^5U was able to grow in the absence of DAFP-1; however, in the presence of DAFP-1, form II crystalline m^5U was grown exclusively. The kinetics of crystallization of m^5U form I and form II, respectively, was estimated based on the rate of the weight of the occurring crystals and the initial weight of m^5U in the specific vial. All the liquid in the vial was collected gently and the weight of the vial or the vial with crystals was measured. After the measurement, the collected liquid was put back into the vial and the crystallization continued. The weights were measured on an Ohaus Discovery semi-micro analytical balance at 9 am every day until the crystallization finished. The experiments were repeated on three vials and the average values were reported.

[3] = DSC thermodynamic stability analysis of m^5U forms; format: physicochemical
Procedure: Thermodynamic Stability Analysis. Both forms of m^5U were analyzed by DSC (FIG. 20). […] The first endotherm associated with water loss is at 139.07° C., whereas the second endotherm ascribed to the melting is at 185.65° C. […] Form II starts losing water and then melts at relatively lower temperatures than those of form I. The enthalpy profiles for both forms are compared in FIG. 21.
All experiments were performed with a DSC 1 (Mettler Toledo, Ohio). An indium standard (Mettler Toledo, Ohio) was used to calibrate the instrument. Samples weighed 3-4 mg and were hermetically encapsulated in standard aluminum sample pans with pierced lids to release any pressure build-up during the experiments. The samples were heated from 25 to 200° C. at a rate of 5° C./min.

[4] = Crystallization of trehalose dihydrate by diffusing ethanol, with DAFP-1; format: physicochemical; conditions: without additive
Description: Similarly, we crystallized trehalose dihydrate crystals by diffusing ethanol into the aqueous ethanol solution of trehalose directly. The protein:trehalose molar ratio (×10^−5) was 9.0 in FIG. 24(b) The crystals formed in the presence of DAFP-1 show a dramatic decrease in size as compared to the crystals obtained without additive.

[5] = Crystal growth of I by evaporation of aqueous solution, no seed crystals, with polypeptide additives; format: physicochemical
Procedure: (§1) We obtained the crystals of m^5U, C, and I, respectively, by evaporation of their aqueous solutions at room temperature. m^5U was known to be crystallized from aqueous ethanol solutions. […] On day 1, each sample vial was first added 600 μL of 400 mM m^5U solution. Then 20 μL of water or polypeptide solutions at certain concentrations were added into each vial. The final m^5U concentration was 387 mM in each vial. The additive/m^5U molar ratios (×10^−5) were varied from 0, 0.04, 0.4, 1.0, 1.2, 3.0, 4.0, 7.8, and 9.0. The vials were gently swirled after the addition and were left open in the air at the room temperature. At least three observations were recorded per day (every 8 hours) until the solutions in all the vials were dry. The experiments were repeated five times (Table 1).
(§2) In previous reports, crystals of C were prepared by evaporating of its aqueous ethanol solutions. Here we obtained C crystals by evaporation of its aqueous solution. […] By slowly evaporating its aqueous solution at 20° C., the pure α-form I crystals were obtained. The experimental procedures for C and I were similar to those described above for m^5U, while the concentrations of C and I solutions were 252 mM and 92 mM, respectively, in each sample vial on day 1 and the additive/C molar ratios (×10^−5) were varied from 0, 0.04, 0.4, 1.0, 1.2, 3.0, 4.0, 7.9, and 10.0 and the additive/I molar ratios (×10^−5) were varied from 0, 0.05, 0.5, 1.1, 2.2, 4.4, 8.1, 10.8, and 21.7. Photos of the vials were taken with a Canon EOS 30D camera during the crystallization process and when the process finished. Optical micrographs were taken under Nikon SMZ800 microscope with a Nikon Coolpix 5400 when the crystallization completed. […]
(§3) Powder X-ray diffraction (PXRD) data were collected at room temperature on a Rigaku Mini Flex II desktop diffractometer using Cu Kα radiation (30 kV, 15 mA) with a 2θ range of 5°-50°, a step size of 0.010°, and a step time of 2 s. […] The same amount of the resulting powders was then mounted and analyzed on a front loading sample holder.

[6] = copper sulfate pentahydrate aqueous solution, no additive
Procedure: To further test the effect of AFP on different types of compounds, we tested copper sulfate pentahydrate. The crystal grows from copper sulfate pentahydrate aqueous solutions at room temperature. Seventy milligrams of copper sulfate pentahydrate were dissolved in one milliliter of deionized, milli-Q water. The solution was filtered and left in the air for evaporation. In the presence AFPs, the conditions were all the same except DAFP-1 was added to the solution at the molar ratio of 10^−7 to copper sulfate.

[7] = Crystal growth of m^5U by evaporation of aqueous solution, no seed crystals, with polypeptide additives; format: physicochemical
Procedure: as §1
All the resulting solids were sent to X-ray crystallography laboratory at the Beckman Institute of California Institute of Technology for analysis. The qualities of the solids for single crystal X-ray diffraction were determined (Table 1). […] The resolution of the data was improved compared with that of previously reported data of m^5U. The crystallographic data of m^5U have been deposited in the Cambridge Database (CCDC) and the CCDC deposit number is 835399.
Powder X-ray diffraction (PXRD) data were collected at room temperature on a Rigaku Mini Flex II desktop diffractometer using Cu Kα radiation (30 kV, 15 mA) with a 2θ range of 5°-50°, a step size of 0.010°, and a step time of 2 s. Samples were lightly ground by hand using a mortar and pestle. The same amount of the resulting powders was then mounted and analyzed on a front loading sample holder.
Different amounts of DAFP-1 were added directly to m^5U solution to determine the critical ratio of DAFP-1/m^5U.

[8] = Crystal growth of C by evaporation of aqueous solution, no seed crystals, with polypeptide additives; format: physicochemical
Procedure: as §1, §2, §3

[9] = optical micrographs, no seed crystals, alone or in the presence of the named additive

For `Cc1cn([C@@H]2O[C@H](CO)[C@@H](O)[C@H]2O)c(=O)[nH]c1=O` [form I, 5-methyluridine], which “Time crystals were stable in air” value ([1]; in air) is on record?
The value was “at least 2 years”.

And the “Time without change (appearance, single crystal X-ray diffraction pattern, DSC profile) of the crystals” value ([1]; left in air at room temperature)?
The value was “more than 24 months”.

What about the “Day the crystallization completes” value [2] of the same compound?
Its value is 9 days.

And the “Day the crystallization starts” value [2]?
The value was 3 days.

What about the “Average crystal growth rate” value [2] of the same compound?
Its value is 13.3 % per day.

What about the “Crystal morphology of the form” value [2] of the same compound?
Its value is “needle-like”.

What about the “Relative thermodynamic stability of the forms” value ([3]; DSC enthalpy profiles) of the same compound?
The value was “more thermodynamically stable”.

What about the “DSC endotherm associated with water loss” value ([3]; heated 25 to 200° C. at 5° C./min) of the same compound?
Its value is 139.07 °C.

With `Cc1cn([C@@H]2O[C@H](CO)[C@@H](O)[C@H]2O)c(=O)[nH]c1=O` [form II, 5-methyluridine] as the compound, how does the “Time until crystals became white opaque powders/blocks” value ([1]; in air at room temperature) read?
The value was 2 months.

And the “Day the crystallization completes” value [2]?
Its value is 15 days.

And the “Day the crystallization starts” value [2]?
Its value is 6 days.

And the “Average crystal growth rate” value [2]?
The value was 10.5 % per day.

What about the “Crystal morphology of the form” value [2] of the same compound?
Its value is “block-shaped”.

For `OC[C@H]1O[C@H](O[C@H]2O[C@H](CO)[C@@H](O)[C@H](O)[C@H]2O)[C@H](O)[C@@H](O)[C@@H]1O` [trehalose dihydrate], which “Size of trehalose dihydrate crystals” value [4] is on record?
Its value is 1-1.5 mm.

With `O=c1[nH]cnc2c1ncn2[C@@H]1O[C@H](CO)[C@@H](O)[C@H]1O` [I, inosine] as the compound, how does the “Crystal quality (suitableness of resulting solids for single crystal x-ray diffraction)” value ([5]; 92 mM I, polypeptide 0 μM) read?
The value was “Yes”.

What about the “Induction time (day of first appearance of solid)” value ([5]; 92 mM I, polypeptide 0 μM, no seed crystals) of the same compound?
Its value is 5 days.

What about the “Morphology of final achieved I solids” value [5, 9] of the same compound?
Its value is “hair-like”.

With `O.O.O.O.O.O=S(=O)([O-])[O-].[Cu+2]` [copper sulfate pentahydrate] as the compound, how does the “Appearance of the crystal (time)” value [6] read?
Its value is 7 days.

Which results are given for `Cc1cn([C@@H]2O[C@H](CO)[C@@H](O)[C@H]2O)c(=O)[nH]c1=O` [m^5U, 5-methyluridine]?
Crystal quality (suitableness of resulting solids for single crystal x-ray diffraction) ([7]; 387 mM m^5U, polypeptide 0 μM): Yes; Induction time (day of first appearance of solid) ([7]; 387 mM m^5U, polypeptide 0 μM, no seed crystals): 6 days; Morphology of finally achieved m^5U solids [7, 9]: Needle-like orthorhombic

Which “Crystal quality (suitableness of resulting solids for single crystal x-ray diffraction)” value ([8]; 252 mM C, polypeptide 0 μM) does the source give for `Nc1ccn([C@@H]2O[C@H](CO)[C@@H](O)[C@H]2O)c(=O)n1` [C, cytidine] here?
Its value is “Yes”.

What about the “Induction time (day of first appearance of solid)” value ([8]; 252 mM C, polypeptide 0 μM, no seed crystals) of the same compound?
Its value is 13 days.

What about the “Morphology of final achieved C solids” value [8, 9] of the same compound?
The value was “needle-like”.
